Reference: article PMC9196137 (SLAS discovery : advancing life sciences R & D, 2022)

Biological target: Mcm2–7 complex
Test: thermal shift assay
Type: binding, Saccharomyces cerevisiae

Kd: 119 µM
Compound: CNC(=O)c1cc2c(cn1)[nH]c1ccccc12 [CMA, β-carboline-3-carboxylic acid N-methylamide]
